Assay results taken from paper PMC11589570, “Critical assessment of LC3/GABARAP ligands used for degrader development and ligandability of LC3/GABARAP binding pockets” (Nature Communications, 2024).
Several values for one entry are separate records, joined by “and”; a condition that tells them apart may be missing. Equal values may be shown once.

Columns and labels:
Type in all cases: binding
[1] = molecular target: LC3B (Homo sapiens, UniProt Q9GZQ8); assay: FP assay with Cy5-labelled p62 LIR tracer (protein titration and tracer displacement); settings: for normalized FP signal, p62 LIR tracer displacement: LC3B; for compound titration LC3B (displacement curve, FP signal): two replicate columns per compound
[2] = molecular target: T1, LC3A (Homo sapiens, UniProt Q9H492); assay: as above; settings: for normalized FP signal, p62 LIR tracer displacement: LC3A
[3] = molecular target: T1, LC3A; assay: Spectral shift assay (Dianthus), cysteine-labelled protein; settings: Repeat 1 and Repeat 2, listed as 10O5 (4)
Description: Affinity determination using spectral shift mode on Dianthus: To determine dissociation constants, the Dianthus instrument (NanoTemper Technologies GmbH, Germany) was used to monitor molecular interactions. […] Protein was labelled with RED-maleimide 2nd Generation (cat# MO-L014; NanoTemper Technologies GmbH). Labeling was carried out following the manufacturer protocol, using a 3:1 ratio dye:protein. […] Protein was purified in 30 mM HEPES, 100 mM NaCl, 0.05% Tween, pH 7.5. […] Measurements were performed in spectral shift mode with an LED excitation power of 100%. Data were analyzed using the DI.Screening Analysis Software (v.2.0.4) (NanoTemper Technologies GmbH, Germany) and quality criteria values including Δ Ratio, Signal-to-Noise-Ratio, Fit Saturation and KD values were determined.

[4] = log10 concentration [M] -6.69897
[5] = log10 concentration [M] -7.30103
[6] = log10 concentration [M] -7.79588
[7] = log10 concentration [M] -8.08092
[8] = log10 concentration [M] -3.82391
[9] = log10 concentration [M] -4.60206
[10] = log10 concentration [M] -5.30103
[11] = log10 concentration [M] -6.22185

O=C1Nc2ccc(I)cc2C1=Cc1cc(Br)c(O)c(Br)c1 [compound 4]
normalized FP signal, p62 LIR tracer displacement [1, 4]: 94.2105 and 95.5263 | normalized FP signal, p62 LIR tracer displacement [1, 5]: 96.3158 and 90.2632 | normalized FP signal, p62 LIR tracer displacement [1, 6]: 96.5789 | normalized FP signal, p62 LIR tracer displacement [1, 7]: 96.0526 and 95.2632 | compound titration LC3B (displacement curve, FP signal) [1, 8]: 84.7368 and 89.4737 | compound titration LC3B (displacement curve, FP signal) ([1]; log10 concentration [M] -4.1549): 89.4737 and 89.2105 | compound titration LC3B (displacement curve, FP signal) [1, 9]: 90.7895 and 93.1579 | compound titration LC3B (displacement curve, FP signal) ([1]; log10 concentration [M] -5): 95 and 100.526 | compound titration LC3B (displacement curve, FP signal) [1, 10]: 93.9474 and 101.579 | compound titration LC3B (displacement curve, FP signal) ([1]; log10 concentration [M] -5.69897): 91.0526 | compound titration LC3B (displacement curve, FP signal) [1, 11]: 96.5789 and 94.4737 | compound titration LC3B (displacement curve, FP signal) [1, 4]: 94.2105 and 95.5263 | compound titration LC3B (displacement curve, FP signal) [1, 5]: 96.3158 and 90.2632 | compound titration LC3B (displacement curve, FP signal) [1, 6]: 93.1579 and 96.5789 | compound titration LC3B (displacement curve, FP signal) [1, 7]: 96.0526 and 95.2632 | normalized FP signal, p62 LIR tracer displacement [2, 8]: 89.4737 | normalized FP signal, p62 LIR tracer displacement ([2]; log10 concentration [M] -3.82391, listed as 10O5): 75.5263 | normalized FP signal, p62 LIR tracer displacement ([2]; log10 concentration [M] -4.1549, listed as 10O5): 82.8947 and 95 | normalized FP signal, p62 LIR tracer displacement [2, 9]: 100.526 | normalized FP signal, p62 LIR tracer displacement ([2]; log10 concentration [M] -4.60206, listed as 10O5): 87.3684 | normalized FP signal, p62 LIR tracer displacement ([2]; log10 concentration [M] -5): 94.4737 | normalized FP signal, p62 LIR tracer displacement ([2]; log10 concentration [M] -5, listed as 10O5): 88.6842 | normalized FP signal, p62 LIR tracer displacement [2, 10]: 95.7895 | normalized FP signal, p62 LIR tracer displacement ([2]; log10 concentration [M] -5.69897, listed as 10O5): 88.1579 and 98.6842 | normalized FP signal, p62 LIR tracer displacement [2, 11]: 93.1579 | normalized FP signal, p62 LIR tracer displacement ([2]; log10 concentration [M] -6.22185, listed as 10O5): 102.368 | normalized FP signal, p62 LIR tracer displacement ([2]; log10 concentration [M] -6.69897, listed as 10O5): 99.4737 and 97.6316 | normalized FP signal, p62 LIR tracer displacement ([2]; log10 concentration [M] -7.30103, listed as 10O5): 97.6316 and 100 | normalized FP signal, p62 LIR tracer displacement ([2]; log10 concentration [M] -7.79588, listed as 10O5): 98.6842 and 98.1579 | normalized FP signal, p62 LIR tracer displacement ([2]; log10 concentration [M] -8.08092, listed as 10O5): 98.9474 and 105.263 | compound titration LC3A (displacement curve, FP signal) ([2]; log10 concentration [M] -5.30103, two replicate columns per compound): 95.7895 | Initial Fluorescence ([3]; compound 15.2588 nM titrated against LC3A): 5485.239 and 8498.012 | Initial Fluorescence ([3]; compound 30.5176 nM titrated against LC3A): 4967.649 and 8590.938 | Initial Fluorescence ([3]; compound 61.0352 nM titrated against LC3A): 3893.892 and 7432.185 | Initial Fluorescence ([3]; compound 122.07 nM titrated against LC3A): 3715.765 and 5942.313 | Initial Fluorescence ([3]; compound 244.141 nM titrated against LC3A): 3805.917 and 4785.866 | Initial Fluorescence ([3]; compound 488.281 nM titrated against LC3A): 2784.925 and 3093.111 | Initial Fluorescence ([3]; compound 976.562 nM titrated against LC3A): 3008.559 and 2759.079 | Initial Fluorescence ([3]; compound 1953.12 nM titrated against LC3A): 2614.532 and 2461.361 | Initial Fluorescence ([3]; compound 3906.25 nM titrated against LC3A): 2609.726 and 2127.302 | Initial Fluorescence ([3]; compound 7812.5 nM titrated against LC3A): 2627.775 and 2205.232 | Initial Fluorescence ([3]; compound 15625 nM titrated against LC3A): 2084.943 and 1892.122 | Initial Fluorescence ([3]; compound 31250 nM titrated against LC3A): 1913.624 and 1771.147 | Initial Fluorescence ([3]; compound 62500 nM titrated against LC3A): 1934.175 and 2136.348 | Initial Fluorescence ([3]; compound 125000 nM titrated against LC3A): 2010.201 and 1874.865 | Initial Fluorescence ([3]; compound 250000 nM titrated against LC3A): 1863.832 and 1842.946 | Initial Fluorescence ([3]; compound 500000 nM titrated against LC3A): 1618.141 and 1654.997
